# Measured values as given in publication PMC11768549, “Optimization of Toxicity, Biodegradability, and Skin Irritation in Formulations Containing Mixtures of Anionic and Nonionic Surfactants Combined with Silica Nanoparticles” (Toxics, 2025).
# Assays:
# Vibrio fischeri = assay: Luminescence inhibition assay in Vibrio fischeri (ISO 11348-2:2007, LumiStox 300); format: cell-based; details: 50% bioluminescence inhibition after 30 min exposure, pH 7.0, 2% NaCl; mixtures 1:1
# Method: The toxicity measurement is based on the luminous intensity of marine bacteria of the strain V. fischeri NRRLB11177 after exposure to a toxic substance. Measurements were taken using the LumiStox 300 system, which includes a bioluminescence measuring instrument and an incubation unit, in accordance with the ISO 11348-2:2007 guideline. The luminescent bacteria, which were dehydrated and frozen at −18 °C, were reactivated with a suspension provided by Dr. Lange. The assay conditions were maintained at a pH of 7.0 with a NaCl concentration of 2%. Triplicate measurements were taken at incubation times of 30 min. The toxicity values were determined as EC50, representing the surfactant concentrations that inhibit 50% of the bioluminescence after 30 min of exposure. If necessary, the sample was filtered prior to the assay.
# (§1) The toxicity of individual anionic and nonionic surfactants on V. fischeri and L. sativum was evaluated, and their EC50 results are presented in Table 2. For V. fischeri, toxicity values are expressed as EC50 values, determined using a logarithmic plot of sample concentration versus the percentage reduction in light intensity after a 30-min exposure period. This indicates the concentration at which there is a 50% reduction in bioluminescence. Similarly, for L. sativum, toxicity values are also expressed as EC50 values, which represent the concentration at which 50% growth inhibition is observed. This was measured by assessing the root and stem elongation after a 72-hour exposure period. The specific growth parameters, such as root length reduction, were used to determine the EC50 values.
# (§2) The model of toxic units (MTU) was applied to quantify the interactions between toxicants in binary surfactant mixtures: FAE-R12–14E11 with EC-R12–14E3, FAE-R12–14E11 with EC-R12–14E10, and FAE-R12–14E11 with EC-R8E5. This approach helps predict whether the principles of concentration or response addition apply. The toxic unit for each component in the mixture (TUi) was calculated as the ratio between the concentration of the toxicant in the mixture [i] and its half-maximal effective concentration (EC50i) (Equation (7)). The total toxic unit of the mixture (TUmix) is the sum of the TUi values of the individual components […].(7) TUi=i/EC50i (8) TUmix=TUA+TUB=A/EC50A+B/EC50B
# (§3) If the toxicants act independently (response addition), the predicted toxic unit (TUr) is calculated using Equations (9) and (10). If TUr ≈ TUmix, response addition can be expected.(9) If TUA>TUB TUr=1+TUB/TUA (10) If TUA<TUB TUr=1+TUA/TUB
# Lepidium sativum = assay: Germination test on Lepidium sativum seeds (ISO 18763:2016), root and stem elongation; format: in vivo; details: 72 h, 25 °C, dark, mixtures 1:1; for EC50, L. sativum (Root): 50% root growth inhibition; for EC50, L. sativum (Stem): 50% stem growth inhibition
# Method: The germination test on L. sativum (cress) seeds is a static test of acute toxicity. This test allows for evaluating the phytotoxic effects produced in the seed germination process and the development of seedlings during the first days of growth (72 h). The garden cress test with L. sativum was carried out according to ISO-18763:2016 [28]. The inhibition in the elongation of the root and stem was determined.
# Briefly, 25 L. sativum seeds were placed in a well-distributed manner in Petri dishes (100 mm Ø) containing filter paper saturated with 5 mL of the test solution. Distilled water was used as a control, and zinc (II) was used as a toxic reference compound. Each Petri dish was covered and sealed to prevent moisture loss. For 72 h, at 25 °C, and in the absence of light, the different samples were incubated in triplicate. Once the incubation was completed, the length of the root and stem of each germinated seed was measured with the help of graph paper. The inhibition of the root and stem growth by the test solutions was assessed in comparison with the control.
# as §1, §2, §3
# [1] = Static biodegradation test (OECD 301E), DOC removal; details: initial 25 mg·L^−1; for B (surfactant biodegradability): percentage biodegraded after 50 h of assay; for t1/2 (half-life of biodegradation): time for 50% decrease of substrate, graphical
# Method: The static biodegradation tests were conducted according to the OECD 301E guidelines, which focus on the removal of organic compounds measured as dissolved organic carbon (DOC). Solutions of the surfactant and surfactant–co-surfactant mixtures, serving as the sole carbon source for microorganisms, were tested in a mineral medium inoculated and incubated under aerobic conditions in the dark for 28 days. The initial concentration of the test substance for surfactant and surfactant–co-surfactant mixtures was set at 25 mg·L^−1.
# The surfactant solution, for which biodegradability was to be determined, was inoculated with 0.5 mL of water from the secondary treatment stage of a sewage treatment plant (STP) operating with activated sludge (plus code: 597G+W2, Granada, Spain). The biodegradation process was monitored by measuring the residual surfactant concentration over time through DOC determinations in samples, filtered through a 0.45 µm Millipore membrane, using the total organic carbon (TOC) analyser Shimadzu VCSH/CSH (Shimadzu Co., Kyoto, Japan). Reference assays were performed with an easily biodegradable surfactant (linear alkylbenzene sulfonate) to determine the activity of the microbial population present in the test medium. […] All samples were tested in duplicate. The experimental setup included two flasks for the blank, two for the reference surfactant, two for the abiotic assay, and two for each of the surfactant concentrations tested.
# The biodegradation of surfactants and their binary mixtures was assessed under aerobic conditions following the OECD 301E guidelines for ready biodegradability. The process was tracked by measuring the dissolved organic carbon (DOC) in the samples over time. […] Abiotic control tests, using HgCl2 to inhibit biological activity, confirmed that surfactant concentrations remained at nearly 100% throughout the degradation period. […] Figure 1 illustrates the progression of ultimate biodegradation of the surfactants and binary mixtures over the testing period. The assays were initiated with surfactant concentrations of 25 mg·L^−1.
# To compare and quantify the biodegradation test, two key parameters of the biodegradation profiles were defined and analysed: (a) Half-life (t1/2) is the time required for the substrate concentration to decrease by 50% from the start of the biodegradation process. This value is determined using graphical methods based on the biodegradation curve. (b) Surfactant biodegradability (B) is defined as the percentage of surfactant that is biodegraded after 50 h of assay. Half-time and surfactant biodegradability results are shown in Table 5, together with mineralization values obtained using Equation (11).(11) Mineralization (%)=DOCi− [DOC]f/ [DOC]i·100 where
# • DOCi is the dissolved organic carbon at the beginning of the test; • DOCf is the dissolved organic carbon at the end of the test.
# zein = assay: Irritation potential using the modified zein method (zein number); parameters: species or system corn; details: room temperature; for ZN 0.5%: each component 0.5% wt.; for ZN 1%: each component 1% wt.
# Method: The irritant potential of surfactants, their mixtures, and the addition of silica nanoparticles was assessed using a modified zein method. This method is used to assess the potential irritation of chemicals or cosmetics on the skin. It is based on the interaction of a substance with proteins, particularly with the protein zein, which is a protein derived from corn. The modified zein method is recognized as an in vitro alternative to predict dermal irritation without the need to perform tests on animals. This method involves three stages to determine the amount of protein (zein) solubilized in a surfactant-containing solution: (1) zein denaturation, (2) oxidation and mineralization of organic matter, and (3) nitrate content measurement. All experiments were conducted at room temperature and performed in triplicate. For these tests, the final concentration of each component, whether pure or in a mixture, was set at 0.5% and 1% wt. These concentrations reflect typical dosages found in cosmetic, detergent, and personal hygiene products that come into direct contact with the skin. The zein number (ZN), expressed as mg of nitrogen (N) released per 100 g of surfactant solution, was calculated using the following formula: ZN = c/10(2) where c is the nitrogen concentration measured spectrophotometrically in ppm (mg·1000 mL^−1). Given that the density of the testing solution is 1 g·mL^−1, c is ultimately expressed as mg·1000 g^−1. Two control cases were used for validation: a negative control with deionized water and a positive control with 1% wt. sodium lauryl sulphate (SLS), a well-known surfactant with high irritant potential. The zein number (ZN) (Section 2.3) provides an indication of surfactant-induced potential skin irritation. According to the scale established by, surfactants can be classified as non-irritant, moderately irritant, irritant, or strongly irritant. The final concentration of each component, whether individual or in a mixture, was set at 0.5% and 1% wt.
# [2] = parameters: method as in doi:10.1016/j.molliq.2023.122021; details: cited from earlier work; for CMC (±SD): critical micelle concentration; for HLB: hydrophilic–lipophilic balance
Substance,"EC50, V. fischeri (Vibrio fischeri) [mg/L]","EC50, L. sativum (Root) (Lepidium sativum) [mg/L]","EC50, L. sativum (Stem) (Lepidium sativum) [mg/L]",B (surfactant biodegradability) [1] [%],t1/2 (half-life of biodegradation) [1] [h],ZN 0.5% (zein),ZN 1% (zein),CMC (±SD) [2],HLB [2]
Capryleth-6 Carboxylic Acid [EC-R8E5],32.76 ± 3.60,53.61 ± 7.20,64.77 ± 6.50,9.40,118.20,49.15 ± 3.60 mg of nitrogen (N) released per 100 g of surfactant solution,157.9 ± 7.40 mg of nitrogen (N) released per 100 g of surfactant solution,97.9 ± 6.5 [17] mg·L^−1,11–14 [17]
Laureth-4 Carboxylic Acid [EC-R12–14E3],3.58 ± 1.28,35.40 ± 4.80,93.25 ± 8.90,1.25,330.90,152.92 ± 7.25 mg of nitrogen (N) released per 100 g of surfactant solution,183.5 ± 5.60 mg of nitrogen (N) released per 100 g of surfactant solution,33.7 ± 3.1 [17] mg·L^−1,5.5 [17]
Laureth-11 Carboxylic Acid [EC-R12–14E10],14.18 ± 4.32,32.02 ± 8.90,60.11 ± 6.52,10.30,130.50,–,–,70.8 ± 7.2 [17] mg·L^−1,9.5 [17]
Laureth-11/Myreth-11 [FAE-R12–14E11],13.26 ± 3.26,338.17 ± 13.21,97.15 ± 7.14,2.40,185.80,–,–,18.5 ± 2.3 [17] mg·L^−1,14.3 [17]
